Patent US8063065B2, “Azaindazole compounds as CCR1 receptor antagonists” (Boehringer Ingelheim International GmbH, priority 2008, dated 2011)

Target: T1, CCR1 (Homo sapiens, UniProt P32246)
T1 sequence (P32246 1-355): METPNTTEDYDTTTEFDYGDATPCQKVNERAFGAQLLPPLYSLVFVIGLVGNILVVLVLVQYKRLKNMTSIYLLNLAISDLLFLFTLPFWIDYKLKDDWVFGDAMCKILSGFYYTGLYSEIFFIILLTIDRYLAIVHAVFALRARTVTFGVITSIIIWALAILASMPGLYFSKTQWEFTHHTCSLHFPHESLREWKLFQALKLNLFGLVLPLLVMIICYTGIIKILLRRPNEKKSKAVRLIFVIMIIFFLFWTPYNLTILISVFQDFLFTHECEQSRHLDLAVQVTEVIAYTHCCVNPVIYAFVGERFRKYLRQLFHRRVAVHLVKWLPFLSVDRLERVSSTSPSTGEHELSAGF
Assay: Method B: calcium flux in CCR1 transfected cells (Calcium 4 dye, […] FDSS6000), block of the CCR1/MIP-1α interaction
Assay type: cell-based
Conditions: Method B: Calcium 4 dye, MIP-1alpha at EC80
Experimental: Compounds are assessed for the ability to block the interaction of CCR1 and MIP-1α in a functional cellular assay measuring calcium flux in CCR1 transfected cells.
Method B: Non-adherent cells purchased from Chemicon Corporation (HTS005C), stably expressing recombinant CCR1 and G-alpha-16 are grown in RPMI 1640 medium (Mediatech 10-080-CM) supplemented with 10% FBS, 0.4 mg/mL Geneticin and penicillin/streptomycin. On the day of the assay, the cells are loaded with Calcium 4 dye (Molecular Devices R7448) with Probenecid (Invitrogen P346400) at 8E5 cells/mL for 1 hour at room temperature. After 1 hour, they are seeded in a 384-well tissue culture-treated plate at a density of 20,000 cells/well. Appropriately diluted test compound is added to the well to achieve a top concentration of 3,000 nM (diluted 4-fold with 10 doses total). The final concentration of DMSO is 1%. The buffer is HBSS (Invitrogen 14025) with 20 mM HEPES at pH 7.4. The cells incubate 30 minutes at 37 C and then 30 minutes at room temperature. The plates are transferred to the […] FDSS6000 where MIP-1alpha in 1% BSA is added at the EC80 final concentration. All plates must be read within 4 hours of the start of dye-loading. Wells+/−MIP-1alpha containing diluted DMSO instead of compound serve as the controls. Data are analyzed using Activity Base software.

Point of comparison: `CCC[C@H](NC(=O)c1cncc2c1cnn2-c1ccc(F)cc1)c1ccnc(S(=O)(=O)CC)c1` [1-(4-Fluorophenyl)-1H-pyrazolo[3,4-c]pyridine-4-carboxylic acid [(S)-1-(2-ethanesulfonyl-pyridin-4-yl)-butyl]-amide], IC50 0.1 nM. Against it:
- CCS(=O)(=O)c1cc([C@H](C)NC(=O)c2cncc3c2cnn3-c2ccc(F)cc2)ccn1 [1-(4-Fluorophenyl)-1H-pyrazolo[3,4-c]pyridine-4-carboxylic acid [(S)-1-(2-ethanesulfonyl-pyridin-4-yl)-ethyl]-amide] — 20-fold higher, 2 nM
- CC[C@H](NC(=O)c1cncc2c1cnn2-c1ccc(F)cc1)c1ccnc(S(=O)(=O)CC)c1 [1-(4-Fluorophenyl)-1H-pyrazolo[3,4-c]pyridine-4-carboxylic acid [(S)-1-(2-ethanesulfonyl-pyridin-4-yl)-propyl]-amide] — 2-fold higher, 0.2 nM
- CC[C@H](NC(=O)c1cncc2c1cnn2-c1ccc(F)cc1)c1ccnc(CO)c1 [1-(4-Fluorophenyl)-1H-pyrazolo[3,4-c]pyridine-4-carboxylic acid [(S)-1-(2-hydroxymethyl-pyridin-4-yl)-propyl]-amide] — 30-fold higher, 3 nM
- CC[C@H](NC(=O)c1cncc2c1cnn2-c1ccc(F)cc1)c1cc(NC(C)C)nc(S(C)(=O)=O)c1 [1-(4-Fluorophenyl)-1H-pyrazolo[3,4-c]pyridine-4-carboxylic acid [(S)-1-(2-isopropylamino-6-methanesulfonyl-pyridin-4-yl)-propyl]-amide] — 2-fold higher, 0.2 nM
- CC[C@H](NC(=O)c1cncc2c1cnn2-c1ccc(F)cc1)c1ccnc([S+](C)[O-])c1 (stereo partly drawn) [1-(4-Fluorophenyl)-1H-pyrazolo[3,4-c]pyridine-4-carboxylic acid [(S)-1-(2-methanesulfinyl-pyridin-4-yl)-propyl]-amide] — 5-fold higher, 0.5 nM
- COc1cc([C@H](C)NC(=O)c2cncc3c2cnn3-c2ccc(F)cc2)cc(S(C)(=O)=O)n1 [1-(4-Fluorophenyl)-1H-pyrazolo[3,4-c]pyridine-4-carboxylic acid [(S)-1-(2-methanesulfonyl-6-methoxy-pyridin-4-yl)-ethyl]-amide] — 4-fold higher, 0.4 nM
- CC[C@H](NC(=O)c1cncc2c1cnn2-c1ccc(F)cc1)c1cc(OC)nc(S(C)(=O)=O)c1 [1-(4-Fluorophenyl)-1H-pyrazolo[3,4-c]pyridine-4-carboxylic acid [(S)-1-(2-methanesulfonyl-6-methoxy-pyridin-4-yl)-propyl]-amide] — the same, 0.1 nM
- CNc1cc([C@H](C)NC(=O)c2cncc3c2cnn3-c2ccc(F)cc2)cc(S(C)(=O)=O)n1 [1-(4-Fluorophenyl)-1H-pyrazolo[3,4-c]pyridine-4-carboxylic acid [(S)-1-(2-methanesulfonyl-6-methylamino-pyridin-4-yl)-ethyl]-amide] — 4-fold higher, 0.4 nM
- CC[C@H](NC(=O)c1cncc2c1cnn2-c1ccc(F)cc1)c1cc(NC)nc(S(C)(=O)=O)c1 [1-(4-Fluorophenyl)-1H-pyrazolo[3,4-c]pyridine-4-carboxylic acid [(S)-1-(2-methanesulfonyl-6-methylamino-pyridin-4-yl)-propyl]-amide] — 3-fold higher, 0.3 nM
- CC[C@H](NC(=O)c1cncc2c1cnn2-c1ccc(F)cc1)c1coc(S(C)(=O)=O)n1 [1-(4-Fluorophenyl)-1H-pyrazolo[3,4-c]pyridine-4-carboxylic acid [(S)-1-(2-methanesulfonyl-oxazol-4-yl)-propyl]-amide] — 40-fold higher, 4 nM
- C[C@H](NC(=O)c1cncc2c1cnn2-c1ccc(F)cc1)c1cnc(S(C)(=O)=O)o1 [1-(4-Fluorophenyl)-1H-pyrazolo[3,4-c]pyridine-4-carboxylic acid [(S)-1-(2-methanesulfonyl-oxazol-5-yl)-ethyl]-amide] — 190-fold higher, 19 nM
- CC[C@H](NC(=O)c1cncc2c1cnn2-c1ccc(F)cc1)c1cnc(S(C)(=O)=O)o1 [1-(4-Fluorophenyl)-1H-pyrazolo[3,4-c]pyridine-4-carboxylic acid [(S)-1-(2-methanesulfonyl-oxazol-5-yl)-propyl]-amide] — 30-fold higher, 3 nM
